# From paper PMC8557888, “Intracellular Accumulation of Novel and Clinically Used TB Drugs Potentiates Intracellular Synergy” (Microbiology Spectrum, 2021)
# Several values for one entry are separate records, joined by “and”; a condition that tells them apart may be missing. Equal values may be shown once. Read-outs that look alike come from different tables or passages of the source.
# Assays:
# M. smegmatis = assay type: cell-based, Mycobacterium smegmatis
# M. tuberculosis H37Rv [1] = assay: Intracellular efficacy (CFU plating) in M. tuberculosis-infected THP-1 cells; assay type: cell-based, Mycobacterium tuberculosis; details: M. tuberculosis H37Rv-infected THP-1 cells, 20× MIC, 96-h assay; for decrease in bacterial count from starting count: given as size of decrease; for change in bacterial count compared to starting bacterial count: signed value
# M. tuberculosis = assay: Two-dimensional checkerboard synergy assay; assay type: cell-based, Mycobacterium tuberculosis; details: PhX1/WHN296 combination
# [2] = male, C57BL/6, mouse, in vivo, po, 10 mg/kg
# [3] = tested on: M. smegmatis-infected THP-1 cells
# M. tuberculosis H37Rv [4] = details: cited from earlier work
# THP-1 cells [5] = assay: Intracellular accumulation in uninfected THP-1 cells (LC-MS/MS); details: 5 μg/ml of each compound, 48 h
# [6] = THP-1 cell viability during accumulation experiment (trypan blue); details: human
# [7] = PhX1 concentrations in murine plasma, epithelial lining fluid and alveolar macrophages (BAL procedure, LC-MS/MS); details: mice; for Kp / AUC / Cmax: male, C57BL/6, mouse, in vivo, 10 mg/kg; for AUC: 24 h
# THP-1 cells [8] = details: human, 5 μg/ml
# [9] = tested on: M. tuberculosis-infected THP-1 cells; details: 20× MIC
# Experimental: An intracellular accumulation ratio, defined as the intracellular compound concentration divided by the extracellular concentration, was used in this study to allow comparison between compounds (Fig. 5B).
# The intracellular accumulation of the combination of PhX1 and WHN296 in the M. tuberculosis-infected THP-1 cell model was evaluated using quantitative LC-MS/MS at time points of 24, 48, 72, and 96 h (n = 3 for each time point). In this experiment, intracellular drug concentrations are reported in ng/ml to allow comparisons to be made with the minimum compound levels required to achieve synergy.
# THP-1 cells were grown in RPMI medium containing 10% FCS at 37°C in 5% CO2. Cells were seeded and differentiated according to the above protocol for 24 h using PMA. M. tuberculosis (H37RvMa) cells were grown to mid-log phase in 7H9 medium. THP-1 cells were infected at an MOI of 5. Following 3 h of infection, wells were washed with RPMI medium to remove extracellular bacteria and dead cells. RPMI medium containing a predetermined concentration of compound was added to each well in triplicate. The solution was allowed to equilibrate for 30 min. In addition, three wells were left without drug treatment (following M. tuberculosis infection) and served as untreated controls, while an additional three wells of THP-1 cells were left uninfected and were used as uninfected controls. Thereafter, at each time point, cells were washed with RPMI medium. This was followed by the addition of EDTA (5 mM), after which 5 min was allowed for the cells to detach. Trypan blue-stained cells were counted using the automated cell counter. The remaining supernatant (150 μl) was added directly to an Eppendorf tube containing chloroform/methanol (3:1, vol/vol) and 1 μg/ml of compound-specific internal standard (deuterated internal standard for known anti-TB compounds and carbamazepine for novel compounds). […] Samples were processed using quantitative LC-MS/MS assays. […] These were then used to construct calibration curves, which were subsequently used to quantitate the amount of analyte in each respective sample.
# in vitro = details: human
# [10] = cited from earlier work
# [11] = cited from earlier work; remark: listed apart in the source
smiles,measurement,setting,value
CCN(CC)c1ccc2nc3c4ccccc4/c(=N\c4ccccc4)cc-3oc2c1 [PhX1],change in M. smegmatis-associated green fluorescence,M. smegmatis,no significant change
same,decrease in bacterial count from starting count,M. tuberculosis H37Rv [1],0.8 log10CFU/ml
same,change in bacterial count compared to starting bacterial count,M. tuberculosis H37Rv [1],−0.8 log10CFU/ml
same,minimum value required to produce synergy (2D-synergy level),M. tuberculosis,153.1 ng/mL
same,time plasma concentration above M. tuberculosis MIC90,[2],approximately 6 h
same,intracellular accumulation compared among phenoxazines,[3],significantly higher than those of the majority of the other phenoxazines
same,time to steady state of accumulation,[3]; human,2 h
same,MIC90,M. tuberculosis H37Rv [4]; M. tuberculosis H37Rv in vitro,0.19 µM and 0.194 µM
same,increase in efficacy against in vitro M. tuberculosis over PhX6,M. tuberculosis H37Rv [4]; PhX1 vs PhX6,2 fold
same,MIC90,M. tuberculosis H37Rv [4]; line printed in Fig 2,0.089 mg/L
same,Equilibrium level reached (intracellular concentration),THP-1 cells [5],"4,750 ± 127.2 ng/ml"
same,"viability at 48 h, 5 μg/ml",[6],92 ± 5.8%
same,Kp,[7]; ELFAUC/plasmaAUC,1.7
same,AUC,"[7]; po, AUC in epithelial lining fluid cells (alveolar macrophages), 10 mg/kg oral, ELF cells",5.02 µg·h/mL
same,AUC,"[7]; po, AUC in epithelial lining fluid, 10 mg/kg oral, ELF",2.09 µg·h/mL
same,AUC,"[7]; po, AUC in plasma, 10 mg/kg oral, plasma",1.17 µg·h/mL
same,Cmax,"[7]; po, Cmax in epithelial lining fluid cells (alveolar macrophages), 10 mg/kg oral, ELF cells",0.895 ± 0.023 µg/mL
same,Cmax,"[7]; po, Cmax in epithelial lining fluid, 10 mg/kg oral, ELF",0.452 ± 0.022 µg/mL
same,Cmax,"[7]; po, Cmax in plasma, 10 mg/kg oral, plasma",0.2 ± 0.075 µg/mL
same,Kp,"[7]; po, ELF AUC relative to plasma, 10 mg/kg oral",~2
same,Kp,"[7]; po, ELF cell AUC relative to plasma, 10 mg/kg oral",~4
same,ELF cell AUC relative to epithelial lining fluid,[7]; 10 mg/kg oral,2 fold
same,time above MIC90 in epithelial lining fluid,"[7]; 10 mg/kg oral, ELF",8 h
same,log ratio of epithelial lining fluid to plasma concentration,[7]; single-point values such as Cmax,0.65
CCN(CC)c1ccc2nc3c4ccccc4c(=Nc4ccccn4)cc-3oc2c1 [PhX6],intracellular accumulation compared among phenoxazines,[3],only compound accumulating to higher levels
O=C(NN=C(c1ccccn1)c1ccccn1)c1ccncc1 [DPINH],Equilibrium level reached (intracellular concentration),THP-1 cells [5],"1,280 ± 113.1 ng/ml"
CCCCCCCCCCOc1cc2c(=O)c(C(=O)NCCOCCO)cn(CC)c2cc1OCC [RMB041],decrease in bacterial count from starting count,M. tuberculosis H37Rv [1],0.1 log10CFU/ml
same,Equilibrium level reached (intracellular concentration),THP-1 cells [8]; 48 h,953.5 ± 28.2 ng/mL
same,intracellular accumulation ratio (intracellular/extracellular concentration),[9],0.25
same,MIC90,M. tuberculosis H37Rv [4]; M. tuberculosis H37Rv in vitro,1.61 µM
same,"viability at 48 h, 5 μg/ml",in vitro,97 ± 2.5%
CC(=O)NC[C@H]1CN(c2ccc(N3CCOCC3)c(F)c2)C(=O)O1 [linezolid],time to reach equilibrium level / steady state,THP-1 cells [8],≤ 15 min
same,Equilibrium level reached (intracellular concentration),THP-1 cells [8]; 48 h,770 ± 14.1 ng/mL
same,"viability at 48 h, 5 μg/ml",in vitro,92 ± 3.1%
same,log ratio ELF/plasma,[10],0.7
COc1c(N2C[C@@H]3CCCN[C@@H]3C2)c(F)cc2c(=O)c(C(=O)O)cn(C3CC3)c12 [moxifloxacin],decrease in bacterial count from starting count,M. tuberculosis H37Rv [1],approximately 0.5 log10CFU/ml
same,change in bacterial count compared to starting bacterial count,M. tuberculosis H37Rv [1],−0.5 log10CFU/ml
same,Equilibrium level reached (intracellular concentration),THP-1 cells [8]; 48 h,"3,374 ± 48.7 ng/ml"
same,intracellular accumulation ratio (intracellular/extracellular concentration),[9],5.4
same,"viability at 48 h, 5 μg/ml",in vitro,87 ± 2.7%
same,log ratio ELF/plasma,[10],1.5
same,Cmax in epithelial lining fluid,"[11]; human, in vivo",approximately 10 μg/ml
same,plasma Cmax,"[11]; human, in vivo",approximately 4 μg/ml
same,concentration in plasma at the 24-h time point,"[11]; once-off 400 mg oral dose, healthy volunteers",5 µg/mL
CO[C@H]1/C=C/O[C@@]2(C)Oc3c(C)c(O)c4c(O)c(c(/C=N/N5CCN(C)CC5)c(O)c4c3C2=O)NC(=O)/C(C)=C\C=C\[C@H](C)[C@H](O)[C@@H](C)[C@@H](O)[C@@H](C)[C@H](OC(C)=O)[C@@H]1C [rifampin],decrease in bacterial count from starting count,M. tuberculosis H37Rv [1],approximately 1.5 log10CFU/ml
same,change in bacterial count compared to starting bacterial count,M. tuberculosis H37Rv [1],−1.5 log10CFU/ml
same,Equilibrium level reached (intracellular concentration),THP-1 cells [8]; 48 h,"3,050 ± 62.9 ng/ml"
same,"viability at 48 h, 5 μg/ml",in vitro,89 ± 2.4%
same,log ratio ELF/plasma,[10]; in vivo,0.7
same,maximum concentration in epithelial lining fluid,"[11]; human, in vivo",approximately 2 μg/ml
NC(=O)c1cnccn1 [pyrazinamide],log ratio ELF/plasma,[10]; in vivo,3.2
CC(C)=CCC/C(C)=C/CN1CCN([C@@H]2O[C@@H]3O[C@@]4(C)CC[C@H]5[C@H](C)CC[C@@H]([C@H]2C)[C@@]35OO4)CC1 [WHN296],Equilibrium level reached (intracellular concentration),THP-1 cells [8]; 48 h,613.5 ± 19.2 ng/mL
same,MIC90,M. tuberculosis H37Rv [4]; M. tuberculosis H37Rv in vitro,18 µM
same,"viability at 48 h, 5 μg/ml",in vitro,98 ± 1.2%
CCc1cc(C(N)=S)ccn1 [ethionamide],log ratio ELF/plasma,[10]; in vivo,2.8
"C[C@H]1COc2c(N3CCN(C)CC3)c(F)cc3c(=O)c(C(=O)O)cn1c23 [Levofloxacin, levofloxacin]",Equilibrium level reached (intracellular concentration),THP-1 cells [8]; 48 h,860 ± 56.5 ng/mL
same,"viability at 48 h, 5 μg/ml",in vitro,95 ± 4.2%
COc1nc2ccc(Br)cc2cc1[C@@H](c1ccccc1)[C@@](O)(CCN(C)C)c1cccc2ccccc12 [bedaquiline],decrease in bacterial count from starting count,M. tuberculosis H37Rv [1],1.5 log10CFU/ml
same,change in bacterial count compared to starting bacterial count,M. tuberculosis H37Rv [1],−1.5 log10CFU/ml
same,time to reach equilibrium level / steady state,THP-1 cells [8],≤ 30 min
same,Equilibrium level reached (intracellular concentration),THP-1 cells [8]; 48 h,"4,410 ± 190.9 ng/ml"
same,equilibrium level (intracellular),THP-1 cells [8]; 48 h,greater than 4 μg/ml
same,intracellular accumulation ratio (intracellular/extracellular concentration),[9],5.5
same,"viability at 48 h, 5 μg/ml",in vitro,93 ± 4.9%
NNC(=O)c1ccncc1 [isoniazid],log ratio ELF/plasma,[10]; in vivo,1
